How the values were obtained:
[1] = biological target: Proto-oncogene tyrosine-protein kinase Src (Homo sapiens, UniProt P12931); assay: Inhibition of wild-type human partial length SRC (L240 to L536 residues) expressed in bacterial expression system using poly [Glu, Try] 4:1 as substrate in presence of [gamma-33P]ATP
[2] = biological target: T1, Receptor-type tyrosine-protein kinase FLT3 (Homo sapiens, UniProt P36888); assay: Inhibition of wild-type human partial length FLT3 (V592 to Y969 residues) expressed in bacterial expression system using poly [Glu, Try] 4:1 as substrate in presence of [gamma-33P]ATP
T1 sequence (P36888 whole entry): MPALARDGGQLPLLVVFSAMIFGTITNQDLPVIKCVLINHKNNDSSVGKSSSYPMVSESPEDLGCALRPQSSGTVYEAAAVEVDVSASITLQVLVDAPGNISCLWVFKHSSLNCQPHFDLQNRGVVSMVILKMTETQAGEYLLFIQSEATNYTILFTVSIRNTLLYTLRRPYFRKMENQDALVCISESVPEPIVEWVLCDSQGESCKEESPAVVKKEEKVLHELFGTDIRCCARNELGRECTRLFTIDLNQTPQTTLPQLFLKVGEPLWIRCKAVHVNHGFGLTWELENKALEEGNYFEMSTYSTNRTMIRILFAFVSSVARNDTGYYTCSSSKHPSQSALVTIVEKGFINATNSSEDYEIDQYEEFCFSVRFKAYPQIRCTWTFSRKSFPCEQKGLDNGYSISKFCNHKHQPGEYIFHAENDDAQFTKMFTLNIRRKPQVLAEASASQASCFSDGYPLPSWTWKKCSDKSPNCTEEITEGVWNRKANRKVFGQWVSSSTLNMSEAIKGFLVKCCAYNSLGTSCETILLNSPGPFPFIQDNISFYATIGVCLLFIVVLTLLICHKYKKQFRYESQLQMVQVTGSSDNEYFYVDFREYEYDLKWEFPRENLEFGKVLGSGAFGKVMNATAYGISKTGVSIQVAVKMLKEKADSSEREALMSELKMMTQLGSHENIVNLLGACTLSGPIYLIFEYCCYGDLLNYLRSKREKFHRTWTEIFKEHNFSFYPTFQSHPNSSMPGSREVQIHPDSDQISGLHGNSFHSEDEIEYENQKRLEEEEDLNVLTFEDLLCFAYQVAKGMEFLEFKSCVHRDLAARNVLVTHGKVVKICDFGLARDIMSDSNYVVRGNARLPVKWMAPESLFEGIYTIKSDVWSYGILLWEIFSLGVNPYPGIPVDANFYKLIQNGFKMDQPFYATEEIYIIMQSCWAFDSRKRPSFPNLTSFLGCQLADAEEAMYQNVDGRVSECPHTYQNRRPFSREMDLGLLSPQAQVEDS

[3] = biological target: T2, Tyrosine-protein kinase Mer (Homo sapiens, UniProt Q12866); assay: Inhibition of wild-type human partial length MER (R557 to L884 residues) expressed in bacterial expression system using poly [Glu, Try] 4:1 as substrate in presence of [gamma-33P]ATP
T2 sequence (Q12866 whole entry): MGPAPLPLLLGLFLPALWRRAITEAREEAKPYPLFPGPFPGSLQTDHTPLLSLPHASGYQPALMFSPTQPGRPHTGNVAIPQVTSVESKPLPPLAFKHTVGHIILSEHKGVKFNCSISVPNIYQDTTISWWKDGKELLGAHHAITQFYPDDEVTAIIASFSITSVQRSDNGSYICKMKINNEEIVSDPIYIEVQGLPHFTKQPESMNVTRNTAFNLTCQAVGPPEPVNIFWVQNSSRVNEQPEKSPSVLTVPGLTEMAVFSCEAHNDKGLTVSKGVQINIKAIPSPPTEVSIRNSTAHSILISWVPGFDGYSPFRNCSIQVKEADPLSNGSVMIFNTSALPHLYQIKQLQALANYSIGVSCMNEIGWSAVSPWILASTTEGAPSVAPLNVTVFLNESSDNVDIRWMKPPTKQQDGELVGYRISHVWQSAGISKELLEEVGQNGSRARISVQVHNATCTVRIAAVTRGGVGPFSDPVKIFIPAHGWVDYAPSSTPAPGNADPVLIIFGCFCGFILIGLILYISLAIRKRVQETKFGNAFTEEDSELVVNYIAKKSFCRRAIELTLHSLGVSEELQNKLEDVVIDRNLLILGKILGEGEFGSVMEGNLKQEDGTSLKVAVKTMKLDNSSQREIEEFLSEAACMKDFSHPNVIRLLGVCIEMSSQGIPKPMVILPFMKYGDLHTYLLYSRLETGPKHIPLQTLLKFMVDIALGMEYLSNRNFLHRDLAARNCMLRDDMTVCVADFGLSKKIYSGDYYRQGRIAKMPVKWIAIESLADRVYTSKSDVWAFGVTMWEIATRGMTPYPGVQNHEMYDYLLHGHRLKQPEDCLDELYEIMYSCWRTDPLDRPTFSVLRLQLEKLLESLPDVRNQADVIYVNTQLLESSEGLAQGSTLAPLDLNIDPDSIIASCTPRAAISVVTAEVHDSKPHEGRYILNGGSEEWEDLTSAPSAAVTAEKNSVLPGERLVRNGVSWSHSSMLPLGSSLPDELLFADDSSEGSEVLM

[4] = biological target: Vascular endothelial growth factor receptor 2 (Homo sapiens, UniProt P35968); assay: Inhibition of wild-type human partial length VEGFR2 (R787 to P1253 residues) expressed in mammalian expression system using poly [Glu, Try] 4:1 as substrate in presence of [gamma-33P]ATP
Chain of Vascular endothelial growth factor receptor 2 (P35968 whole entry, the tested form may be a part): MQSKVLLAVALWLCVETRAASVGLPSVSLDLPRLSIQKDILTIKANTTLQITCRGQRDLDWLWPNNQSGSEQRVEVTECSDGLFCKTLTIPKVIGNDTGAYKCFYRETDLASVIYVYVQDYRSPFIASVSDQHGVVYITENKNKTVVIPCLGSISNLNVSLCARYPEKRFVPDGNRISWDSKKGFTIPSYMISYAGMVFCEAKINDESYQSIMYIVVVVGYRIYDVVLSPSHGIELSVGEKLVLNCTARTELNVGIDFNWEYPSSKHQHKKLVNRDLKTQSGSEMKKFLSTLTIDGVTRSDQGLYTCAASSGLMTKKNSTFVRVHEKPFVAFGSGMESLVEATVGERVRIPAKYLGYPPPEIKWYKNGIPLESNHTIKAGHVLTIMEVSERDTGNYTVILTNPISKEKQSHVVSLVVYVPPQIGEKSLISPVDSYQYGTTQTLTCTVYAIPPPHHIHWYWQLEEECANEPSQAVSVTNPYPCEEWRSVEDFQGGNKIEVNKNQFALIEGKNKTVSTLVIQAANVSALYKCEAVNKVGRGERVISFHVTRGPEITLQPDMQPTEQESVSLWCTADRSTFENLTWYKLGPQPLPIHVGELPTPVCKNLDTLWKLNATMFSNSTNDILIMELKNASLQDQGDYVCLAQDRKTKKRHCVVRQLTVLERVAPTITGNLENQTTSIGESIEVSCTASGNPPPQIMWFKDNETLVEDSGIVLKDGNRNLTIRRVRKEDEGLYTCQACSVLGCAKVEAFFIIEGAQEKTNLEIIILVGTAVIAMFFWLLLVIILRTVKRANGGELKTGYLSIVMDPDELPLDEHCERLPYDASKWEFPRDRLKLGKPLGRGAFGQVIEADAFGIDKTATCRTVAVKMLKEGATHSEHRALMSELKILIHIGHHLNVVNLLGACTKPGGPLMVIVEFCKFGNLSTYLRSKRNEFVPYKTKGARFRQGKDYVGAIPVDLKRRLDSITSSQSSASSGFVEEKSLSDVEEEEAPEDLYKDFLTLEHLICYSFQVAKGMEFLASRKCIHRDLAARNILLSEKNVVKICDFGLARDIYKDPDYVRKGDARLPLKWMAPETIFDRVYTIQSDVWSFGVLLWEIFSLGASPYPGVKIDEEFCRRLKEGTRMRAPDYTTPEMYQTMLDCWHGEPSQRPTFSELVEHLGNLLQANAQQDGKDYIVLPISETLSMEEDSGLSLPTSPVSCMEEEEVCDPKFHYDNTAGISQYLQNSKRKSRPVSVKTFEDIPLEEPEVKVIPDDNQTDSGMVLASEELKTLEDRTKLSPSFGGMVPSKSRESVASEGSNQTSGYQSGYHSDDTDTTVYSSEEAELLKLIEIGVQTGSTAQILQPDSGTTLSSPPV

Chain of Proto-oncogene tyrosine-protein kinase Src (P12931 2-536 limits assumed): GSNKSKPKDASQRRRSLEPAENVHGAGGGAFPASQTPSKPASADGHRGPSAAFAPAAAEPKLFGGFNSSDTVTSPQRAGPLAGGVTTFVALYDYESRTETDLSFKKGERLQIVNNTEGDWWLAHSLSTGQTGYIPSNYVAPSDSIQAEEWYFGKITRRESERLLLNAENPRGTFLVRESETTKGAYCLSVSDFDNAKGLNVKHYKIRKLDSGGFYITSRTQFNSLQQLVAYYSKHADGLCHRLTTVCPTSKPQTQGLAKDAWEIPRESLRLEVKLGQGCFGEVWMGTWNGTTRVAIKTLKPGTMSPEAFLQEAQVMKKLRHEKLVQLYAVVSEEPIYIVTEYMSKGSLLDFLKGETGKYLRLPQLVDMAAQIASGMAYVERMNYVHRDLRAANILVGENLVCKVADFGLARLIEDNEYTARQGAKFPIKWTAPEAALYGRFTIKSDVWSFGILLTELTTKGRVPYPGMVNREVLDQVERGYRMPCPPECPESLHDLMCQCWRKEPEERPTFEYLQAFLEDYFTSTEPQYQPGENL

Structure (SMILES)	IC50 [1]	IC50 [2]	IC50 [3]	IC50 [4]
CNc1ncc2c(-c3ccc(N4CCN(C)CC4)nc3)nn(CC3CCCC3)c2n1	0.8 µM	0.008 µM	0.48 µM	0.4 µM
CNc1ncc2c(-c3ccc(N4CCN(C(=O)C(C)(C)C)CC4)nc3)nn(CC3CCCC3)c2n1	> 10 µM	0.3 µM	> 10 µM	> 10 µM
CNc1ncc2c(-c3ccc(OC)cc3)nn(CC3OCCO3)c2n1	7.2 µM	0.25 µM	8.7 µM	7.5 µM
Nc1nc(Nc2ccc3c(c2)CC[C@@H](N2CCCC2)CC3)nn1-c1cc2c(nn1)-c1ccccc1CCC2 [BEMCENTINIB]		0.0009 µM		
CCN1CCN(c2ccc(-c3nn(Cc4cn(Cc5ccccc5)nn4)c4nc(NC)ncc34)cn2)CC1	> 10 µM	> 10 µM	> 10 µM	7.7 µM
CNc1ncc2c(-c3ccc(N4CCNCC4)cc3)nn(Cc3cn(Cc4ccccc4)nn3)c2n1	> 10 µM	> 10 µM	> 10 µM	> 10 µM
CNc1ncc2c(-c3ccc(N4CCN(C)CC4)nc3)nn(Cc3cn(Cc4ccccc4)nn3)c2n1	8.3 µM	0.7 µM	2 µM	7.6 µM
CNc1ncc2c(-c3ccc(N4CCNCC4)nc3)nn(CC3CCCC3)c2n1	1.1 µM	0.02 µM	0.64 µM	0.69 µM
CNc1ncc2c(-c3ccc(N4CCNCC4)nc3)nn(CC3OCCO3)c2n1	0.89 µM	0.1 µM	6.2 µM	4.5 µM
CNc1ncc2c(-c3ccc(N4CCNCC4)nc3)nn(Cc3cn(-c4ccsc4C(=O)OC)nn3)c2n1	> 10 µM	0.86 µM	8.9 µM	> 10 µM
CNc1ncc2c(-c3ccc(N4CCN(C(=O)C(C)(C)C)CC4)nc3)nn(Cc3cn(Cc4ccccc4)nn3)c2n1	> 10 µM	1.2 µM	5.4 µM	> 10 µM
CCN1CCN(c2ccc(-c3nn(CC4CCCC4)c4nc(NC)ncc34)cn2)CC1	3.6 µM	0.1 µM	2.5 µM	1.9 µM

— ChEMBL document CHEMBL4184298, “Development of Potent Inhibitors of Receptor Tyrosine Kinases by Ligand-Based Drug Design and Target-Biased Phenotypic Screening” (J Med Chem, 2018)
